The values below come from ChEMBL document CHEMBL6134826, “Cross-subclass metallo-β-lactamase inhibitors: From structural and catalytic commonalities guiding design” (Eur J Med Chem, 2025).

Experiment [1] can be described thus: Inhibition of L1 (unknown origin). Also on record: species or system Bacteria.
The nature of experiment [2]: Inhibition of CphA (unknown origin). On the set-up: species or system Bacteria.
Experiment [3] can be described thus: Inhibition of IMP-1 (unknown origin). On the set-up: species or system Bacteria.
Experiment [4] in a line: Inhibition of ImiS (unknown origin). Also on record: species or system Bacteria.
For experiment [5], the target named is T1, Metallo-beta-lactamase type 2 (Bacteria, UniProt C7C422). The experiment in a line: Inhibition of NDM-1 (unknown origin) using nitrocefin as substrate by colorimetric assay.
T1 sequence (C7C422 whole entry): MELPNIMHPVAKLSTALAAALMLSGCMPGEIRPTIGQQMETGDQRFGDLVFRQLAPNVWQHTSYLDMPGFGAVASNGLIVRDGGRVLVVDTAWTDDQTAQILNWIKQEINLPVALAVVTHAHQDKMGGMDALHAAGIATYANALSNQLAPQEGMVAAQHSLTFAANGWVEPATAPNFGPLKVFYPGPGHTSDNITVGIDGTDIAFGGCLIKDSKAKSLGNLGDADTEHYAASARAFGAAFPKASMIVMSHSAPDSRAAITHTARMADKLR
In experiment [6] the target is T1, Metallo-beta-lactamase type 2. Put plainly: Inhibition of NDM-1 (unknown origin)using fluorescent cephalosporin as substrate preincubated for 10 mins followed by substrate addition by fluorescence based assay.
The nature of experiment [7]: Inhibition of Sfh-1 (unknown origin). Also on record: species or system Bacteria.
Experiment [8] is described as follows: Binding affinity to L1 (unknown origin) assessed as inhibition constant. Also on record: species or system Bacteria.
Experiment [9] is described as follows: Binding affinity to VIM-2 (unknown origin) assessed as inhibition constant. Also on record: species or system Bacteria.
The test system of experiment [10] is Bacteria. Put plainly: Inhibition of L1 (unknown origin) at 100 uM relative to control.
The test system of experiment [11] is Bacteria. The experiment in a line: Inhibition of IMP-1 (unknown origin) at 100 uM relative to control.
Experiment [12] is described as follows: Binding affinity to Sfh-1 (unknown origin) assessed as inhibition constant. On the set-up: species or system Bacteria.
Experiment [13] is described as follows: Binding affinity to IMP-1 (unknown origin) assessed as inhibition constant. Also on record: species or system Bacteria.
Experiment [14] addresses T1, Metallo-beta-lactamase type 2. Put plainly: Inhibition of NDM-1 (unknown origin).
Experiment [15] has as its target Metallo-beta-lactamase type 2 (Bacteria) (UniProt C7C422). The experiment in a line: Inhibition of NDM-1 (unknown origin) at 100 uM relative to control.
A short description of experiment [16]: Inhibition of BcII (unknown origin). On the set-up: species or system Bacteria.
Experiment [17] concerns the target T1, Metallo-beta-lactamase type 2. The experiment in a line: Binding affinity to NDM-1 (unknown origin) assessed as inhibition constant.
A short description of experiment [18]: Binding affinity to BcII (unknown origin) assessed as inhibition constant. Also on record: species or system Bacteria.
Experiment [19] in a line: Inhibition of recombinant VIM-2 (unknown origin). Also on record: species or system Bacteria.

Chain of Metallo-beta-lactamase type 2 (Bacteria) (C7C422 whole entry): as above

`O=C(O)c1cccc2c1OB(O)C(SCc1ccccc1)C2` (centres undefined): the IC50 in experiment [1] came to 5.01 µM; in experiment [2], 0.501 µM.

As to `O=C(CCn1[se]c2ccccc2c1=O)ON1C(=O)CCC1=O`, the results for the IC50 in [3], in experiment [4] and in [5] were 0.53 µM, 7.65 µM and 0.045 µM, respectively.

For the molecule `CC(C)c1cccc2c(-c3ccc(Cn4cncn4)cc3)c(C(=O)O)[nH]c12`, the IC50 is 0.00158 µM in [6], 5.01 µM in experiment [1] and 0.398 µM in experiment [2].

On to `CC(C)c1cccc2c(-c3ccc(CS(C)(=O)=O)c(Cl)c3)c(C(=O)O)[nH]c12`, for which the IC50 in [6] stood at 0.00126 µM; in [1] it was 0.0501 µM; in experiment [2], 1.26 µM.

In experiment [7], `O=C(O)[C@@H]1CS[C@H]2CS[C@H](CS)N21` had a concentration for half-maximal inhibition (IC50) of 0.26 µM. Besides, the inhibition constant Ki in experiment [8] came out at 12 µM; in experiment [9], 2.9 µM.

On to `CC(=O)OC1C2CCC(C(=O)O)N2P1(=O)O` (centres undefined), for which the inhibition in the experiment on Bacteria [10] and in the experiment on Bacteria [11] was 70% throughout.

As to `C[C@]1(Cn2ccnn2)[C@H](C(=O)O)N2C(=O)C[C@H]2S1(=O)=O` [TAZOBACTAM], the values for the Ki in experiment [9] and in [12] were 128 µM and 62.2 µM, respectively.

For the molecule `O=c1c2ccccc2[se]n1-c1ccccc1` [EBSELEN], the IC50 was determined as 1.59 µM in [3] and 0.072 µM in [5].

In the case of `CC(C)c1cccc2c(-c3cc(Cl)cc(Cl)c3)c(C(=O)O)[nH]c12`, the IC50 in experiment [1] amounted to 0.501 µM; in [2], 0.63 µM.

As to `CNCc1ccc([C@@H]2C[C@@H](SC3=C(C(=O)O)N4C(=O)[C@H]([C@@H](C)O)[C@H]4[C@H]3C)CN2)cc1`, in experiment [13], the Ki was 0.18 µM.

Regarding `O=C(O)c1cccc2c1OB(O)[C@@H](NC(=O)C1CCCCC1)C2`, the values for the IC50 in experiment [2] and in [14] were 4.42 µM and 2.04 µM, respectively.

On to `CCN(CC)c1ccc2c(-c3ccccc3C(=O)OCCn3[se]c4ccccc4c3=O)c3ccc(N(CC)CC)cc3[o+]c2c1`, for which the IC50 in experiment [3] was found to be 0.46 µM; in experiment [4] it was 8.62 µM; in [5], 0.016 µM.

Consider `O=C(O)C(=O)CBr` [BROMOPYRUVATE], for which the inhibition in the experiment on Bacteria [10] amounted to 33.3%; in experiment [15], 90.9%. The IC50 in experiment [5] was 2.57 µM.

As for `O=C(CCn1[se]c2ccccc2c1=O)Oc1ccc2ccc(=O)oc2c1`, the IC50 in [3] was 0.97 µM; in experiment [4], 12.5 µM; in experiment [5], 0.025 µM.

Take `CCN(CC)c1ccc2cc(C(=O)NCCC[Se]C#N)c(=O)oc2c1`: the figures for the 50% inhibitory concentration (IC50) in [3], in experiment [4] and in experiment [5] were 0.12 µM, 0.56 µM and 0.081 µM, respectively.

For the molecule `CC1(C)[C@H](C(=O)O)N2C(=O)[C@H](CS)[C@H]2S1(=O)=O`, the IC50 in experiment [1] was 0.3 µM; in experiment [16], 12 µM.

`SCC1SCC2Nc3ccccc3N21` (centres undefined): the inhibition constant (Ki) in [17] was 77 µM. Besides, the IC50 came to 1.4 µM in [7] and 0.62 µM in [1].

For the molecule `CCN(CC)C(=S)SSC(=S)N(CC)CC` [DISULFIRAM], the figures for the IC50 in experiment [3], in experiment [4] and in experiment [5] were 2.9 µM, 3.6 µM and 0.13 µM, respectively.

`CC1(C)[C@H](C(=O)O)N2C(=O)[C@@H](CS)[C@H]2S1(=O)=O`: the results for the IC50 in experiment [1] and in [16] were 0.1 µM and 1.4 µM, respectively.

Turning to `CCOC(=O)[C@]1(CS)N[C@H](C(=O)O)CS1`, the inhibition constant Ki in [17] was determined as 0.44 µM. Besides, the half-maximal inhibitory concentration (IC50) in experiment [7] came out at 1.3 µM; in [1], 20 µM.

Turning to `CC1(C)S[C@H]2CS[C@H](CS)N2[C@@H]1C(=O)O`, in experiment [7], the IC50 came to 0.36 µM. For the same molecule, the figures for the Ki in experiment [8] and in [9] were 11 µM and 6 µM, respectively.

For `C[C@H](NC(=O)CCS)C(=O)O`, the Ki amounted to 6.5 µM in experiment [8], 68 µM in experiment [13] and 5.6 µM in experiment [18].

For `CCOC(=O)[C@]1(CS)N[C@H](C(=O)O)C(C)(C)S1`, the inhibitory constant (Ki) in experiment [17] was found to be 8 µM. The IC50 in experiment [7] came out at 100 µM; in experiment [1], 28 µM.

As for `NCCN[C@H]1CC[C@H](CC(=O)N[C@H]2Cc3cccc(C(=O)O)c3OB2O)CC1`, the figures for the half-maximal inhibitory concentration (IC50) in [19], in experiment [1] and in experiment [2] were 0.005 µM, > 10 µM and 2.51 µM, respectively.

With `O=C(N[C@@H](C(=O)O)c1ccc(Cn2cnnn2)s1)[C@@H](S)CCc1ccccc1`, the IC50 came out at 0.09 µM in experiment [3] and 0.5 µM in [1].
